Assay results published in patent publication US10711006B2, “Selective Bruton's tyrosine kinase inhibitor and use thereof” (HANGZHOU HERTZ PHARMACEUTICAL CO., LTD., priority 2016, dated 2020).

What was measured:
[1] = tested on: arthritis induced by anti-collagen antibodies and lipopolysaccharides; test: Rheumatoid arthritis model induced by anti-collagen antibodies and lipopolysaccharides; assay type: in vivo, Balb/c mice; details: for level of IL-1β in serum (in words): 10 mg/kg orally once a day; for level of IL-1β in serum (in words) / inflammatory cell infiltration, synovial hyperplasia, inflammatory granulation tissue formation, necrotic tissue: versus model group; for IL-1β: serum on Day 13, 10 mg/kg orally once a day Day 2 to Day 12; for inflammatory cell infiltration, synovial hyperplasia, inflammatory granulation tissue formation, necrotic tissue: tissue samples after treatment
Procedure: In Balb/c mice, arthritis was induced by administration of anti-collagen antibodies and lipopolysaccharides (Nandakumar et al., Am. J. Pathol. 2003, 163: 1827-1837).
The specific method was as follows: On Day 0, female Balb/c mice were intravenously injected with anti-type II collagen ChemicomAb mixture in a dose of 100 mg/kg, and on Day 1, lipopolysaccharide was intraperitoneally injected in a dose of 1.25 mg/kg. From Day 2 to Day 12, Compounds 15a, 17a, 24a and 24e were orally administered once a day in a dose of 10 mg/kg. On Day 13 after abdominal anesthesia, […] of blood was taken from the femoral artery and centrifuged at 3000 r/min for 20 minutes, serum was taken to detect IL-1β with a test kit, and related tissue samples were observed.

[2] = target: hERG potassium channel (Homo sapiens (Human), UniProt Q12809); test: hERG potassium channel inhibitory activity, manual patch clamp in CHO cells; assay type: cell-based; details: for IC50: CHO cells stably expressing hERG, whole-cell patch clamp
Chain of hERG potassium channel (Q12809 whole entry): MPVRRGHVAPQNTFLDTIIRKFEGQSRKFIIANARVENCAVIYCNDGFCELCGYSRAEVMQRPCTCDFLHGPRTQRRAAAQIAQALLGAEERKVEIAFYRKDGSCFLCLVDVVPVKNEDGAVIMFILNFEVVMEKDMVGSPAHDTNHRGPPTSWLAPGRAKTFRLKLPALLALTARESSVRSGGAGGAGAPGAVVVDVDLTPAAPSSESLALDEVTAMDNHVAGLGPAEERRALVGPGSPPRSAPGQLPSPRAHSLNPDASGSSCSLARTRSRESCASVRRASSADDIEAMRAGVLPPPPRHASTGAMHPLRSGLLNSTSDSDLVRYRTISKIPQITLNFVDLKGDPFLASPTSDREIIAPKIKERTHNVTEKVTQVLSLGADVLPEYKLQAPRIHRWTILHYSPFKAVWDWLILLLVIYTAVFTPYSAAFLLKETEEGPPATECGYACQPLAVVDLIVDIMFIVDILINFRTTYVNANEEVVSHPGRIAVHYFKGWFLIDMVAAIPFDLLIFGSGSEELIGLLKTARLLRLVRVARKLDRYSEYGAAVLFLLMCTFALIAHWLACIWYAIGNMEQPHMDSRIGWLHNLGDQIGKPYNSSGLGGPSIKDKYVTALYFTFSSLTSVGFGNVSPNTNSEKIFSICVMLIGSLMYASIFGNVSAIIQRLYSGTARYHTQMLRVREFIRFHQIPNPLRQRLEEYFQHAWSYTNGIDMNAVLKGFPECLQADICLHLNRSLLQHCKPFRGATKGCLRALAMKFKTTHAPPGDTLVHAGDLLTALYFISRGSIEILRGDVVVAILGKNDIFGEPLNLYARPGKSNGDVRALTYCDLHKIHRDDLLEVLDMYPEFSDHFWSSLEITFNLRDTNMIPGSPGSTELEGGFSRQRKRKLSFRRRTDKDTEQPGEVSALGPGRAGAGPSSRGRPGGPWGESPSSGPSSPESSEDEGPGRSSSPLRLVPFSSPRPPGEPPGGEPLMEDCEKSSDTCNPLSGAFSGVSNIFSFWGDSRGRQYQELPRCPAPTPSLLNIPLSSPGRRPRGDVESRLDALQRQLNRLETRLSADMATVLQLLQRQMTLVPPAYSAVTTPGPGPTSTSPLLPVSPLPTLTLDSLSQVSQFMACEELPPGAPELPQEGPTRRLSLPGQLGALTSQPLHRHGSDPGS

In the case of `C=CC(=O)N1CC[C@@H](n2nc(-c3ccc(Oc4ccccc4)nc3F)c3c(N)ncnc32)C1` [Compound 24a, (R)-1-(3-(4-amino-3-(2-fluoro-6-phenoxypyridin-3-yl)-1H-pyrazolo[3,4-d]pyrimidin-1-yl)pyrrolidin-1-yl)prop-2-en-1-one], the “level of IL-1β in serum (in words)” value [1] is reported as “significantly reduce”, the “IL-1β” value [1] is reported as 19.32 ± 4.2 ng/L and the “inflammatory cell infiltration, synovial hyperplasia, inflammatory granulation tissue formation, necrotic tissue” value [1] is reported as “significantly improved”. The IC50 [2] was 7.66 µM.

With `C=CC(=O)N1CCC[C@@H](n2nc(-c3ccc(Oc4ccccc4)nc3)c3c(N)ncnc32)C1` [Compound 15a, (R)-1-(3-(4-amino-3-(6-phenoxypyridin-3-yl)-1H-pyrazolo[3,4-d]pyrimidin-1-yl)piperidin-1-yl) prop-2-en-1-one] the “level of IL-1β in serum (in words)” value [1] was “significantly reduce”, the “IL-1β” value [1] was 18.72 ± 6.6 ng/L and the “inflammatory cell infiltration, synovial hyperplasia, inflammatory granulation tissue formation, necrotic tissue” value [1] was “significantly improved”. The IC50 [2] was 15.5 µM, the “hERG IC50 relative to Compound II” value ([2]; IC50 ratio to Compound II) was 2.98 times and the “hERG IC50 relative to ibrutinib” value ([2]; IC50 ratio to ibrutinib) was 4.41 times.
